The record followed here is patent US20140323418A1, “SELECTIVE KINASE INHIBITORS” (PORTOLA PHARMACEUTICALS, INC., priority 2011, published 2014).

Molecules are shown by their SMILES.

The experiment concerns the target T1, full length active recombinant SYK enzyme (Homo sapiens, UniProt P43405).
T1 construct: full length active recombinant SYK enzyme (Millipore, Calif.); purchased Millipore
The experiment is described as follows: Inhibition of Syk tyrosine phosphorylation activity (LANCE TR-FRET kinase assay). To be noted: 1 nM SYK, 550 nM substrate, 100 μM ATP, 1 hour room temperature. The experiment is classed as biochemical. On the technique in general: Time-resolved FRET reads energy transfer from a long-lived donor to a nearby acceptor.
As to `Cn1ccc2c(Nc3nc(NC[C@@H](N)CC(F)F)ncc3C(N)=O)ccc(F)c21` [Example 86, (S)-2-(2-amino-4,4-difluorobutylamino)-4-(7-fluoro-1-methyl-1H-indol-4-ylamino)pyrimidine-5-carboxamide], the IC50 is 10 to 100 nM. As for `NC(=O)c1cnc(NC2CCNC2=O)nc1Nc1cnc2ccccc2c1` (stereo not drawn) [Example 216, 2-((2-oxopyrrolidin-3-yl)amino)-4-(quinolin-3-ylamino)pyrimidine-5-carboxamide], the figure is above 1000 nM; as for `CC[C@@H](Nc1ncc(C(N)=O)c(Nc2cc(-n3cccn3)cc(-n3cccn3)c2)n1)C(N)=O` [Example 250, (R)-2-((1-amino-1-oxobutan-2-yl)amino)-4-((3,5-di(1H-pyrazol-1-yl)phenyl)amino)pyrimidine-5-carboxamide], 100 to 1000 nM; as for `CCOC(=O)[C@@H]1CC[C@@H](Nc2ncc(C(N)=O)c(Nc3cccc(C)c3)n2)[C@@H](N)C1` (racemic) [Example 188, (1R,3S,4R)-ethyl 3-amino-4-(5-carbamoyl-4-(m-tolylamino)pyrimidin-2-ylamino)cyclohexanecarboxylate], 10 to 100 nM. Regarding `NC(=O)c1cnc(N[C@@H]2CCC[C@H](F)[C@@H]2N)nc1Nc1cnc2ccccc2c1` [Example 241, 2-((1R,2R,3S)-2-amino-3-fluorocyclohexylamino)-4-(quinolin-3-ylamino)pyrimidine-5-carboxamide], the IC50 was in the range of 100 to 1000 nM. Take `NC(=O)c1cnc(N[C@@H]2CCOC[C@@H]2N)nc1Nc1cnc2ccccc2c1` [Example 177, 2-((3R,4R)-3-aminotetrahydro-2H-pyran-4-ylamino)-4-(quinolin-3-ylamino)pyrimidine-5-carboxamide]: the IC50 fell in the range of 10 to 100 nM.

`CC[C@@H](Nc1ncc(C(N)=O)c(Nc2ccc3ccncc3c2)n1)C(N)=O` [Example 71, (R)-2-(1-amino-1-oxobutan-2-ylamino)-4-(isoquinolin-7-ylamino)pyrimidine-5-carboxamide]: the IC50 lay in the range of 10 to 100 nM. Take `NC(=O)c1cnc(N[C@@H]2CCCC[C@@H]2N)nc1Nc1csc2ncccc12` [Example 44, 2-(((1R,2S)-2-aminocyclohexyl)amino)-4-(thieno[2,3-b]pyridin-3-ylamino)pyrimidine-5-carboxamide]: the IC50 fell in the range of 1 to 10 nM. Turning to `NC(=O)c1cnc(Nc2ccc(Cl)cc2)nc1N[C@H]1CC[C@@H](N)CC1` [Example 186, 4-(4-aminocyclohexylamino)-2-(4-chlorophenylamino)pyrimidine-5-carboxamide], the IC50 is 10 to 100 nM.

For `CC1=C[C@@H](Nc2ncc(C(N)=O)c(Nc3cccc(-n4nccn4)c3)n2)CN1` [Example 227], the IC50 lay in the range of 100 to 1000 nM. With `CC[C@@H](Nc1ncc(C(N)=O)c(Nc2ccc(C)cc2)n1)C1(N)CC1` [Example 130, (R)-2-(1-(1-aminocyclopropyl)propylamino)-4-(p-tolylamino)pyrimidine-5-carboxamide], the IC50 was in the range of 1 to 10 nM. Take `Cc1cccc(Nc2nc(N[C@@H]3CC[C@@H](C(=O)N4CCCC4)C[C@@H]3N)ncc2C(N)=O)c1` (racemic) [Example 193, 2-((1R,2S,4R)-2-amino-4-(pyrrolidine-1-carbonyl)cyclohexylamino)-4-(m-tolylamino)pyrimidine-5-carboxamide]: the IC50 was 10 to 100 nM. The value for `NC(=O)c1cnc(N[C@@H]2CCCC[C@@H]2N)nc1Nc1ccc(-c2ncco2)cc1` [Example 255, 2-(((1R,2S)-2-aminocyclohexyl)amino)-4-((4-(oxazol-2-yl)phenyl)amino)pyrimidine-5-carboxamide] was 10 to 100 nM; that for `Cc1cccc(Nc2nc(NCC(N)CC(F)F)ncc2C(N)=O)c1` (stereo not drawn) [Example 206] was 10 to 100 nM. The value for `Cn1ccc2c(Nc3nc(NCC(N)C(C)(F)F)ncc3C(N)=O)cccc21` (stereo not drawn) [Example 104, 2-(2-amino-3,3-difluorobutylamino)-4-(1-methyl-1H-indol-4-ylamino)pyrimidine-5-carboxamide] was 10 to 100 nM. The value for `NC(=O)c1cnc(N[C@@H]2CCCC[C@@H]2NC=O)nc1Nc1cccc(-n2nccn2)c1` [Example 10, 4-(3-(2H-1,2,3-triazol-2-yl)phenylamino)-2-((1R,2S)-2-formamidocyclohexylamino)pyrimidine-5-carboxamide] was 100 to 1000 nM; that for `CC[C@@H](Nc1ncc(C(N)=O)c(Nc2cnn3ccccc23)n1)C(N)=O` [Example 56, (R)-2-((1-amino-1-oxobutan-2-yl)amino)-4-(pyrazolo[1,5-a]pyridin-3-ylamino)pyrimidine-5-carboxamide] was 10 to 100 nM. For the compound `NC(=O)c1cnc(N[C@@H]2CCOC[C@@H]2N)nc1Nc1ccc2scnc2c1` [Example 178, 2-((3R,4R)-3-aminotetrahydro-2H-pyran-4-ylamino)-4-(benzo[d]thiazol-5-ylamino)pyrimidine-5-carboxamide], the IC50 fell in the range of 10 to 100 nM. As to `CCn1ccc2c(Nc3nc(Nc4ccc5c(c4)CC(=O)N5)ncc3C(N)=O)cccc21` [Example 113, 4-(1-ethyl-1H-indol-4-ylamino)-2-(2-oxoindolin-5-ylamino)pyrimidine-5-carboxamide], the IC50 lay in the range of 10 to 100 nM. On to `NC(=O)c1cnc(N[C@H]2CN[C@H](C(=O)O)C2)nc1Nc1cnc2ccccc2c1` [Example 217, (2S,4R)-4-((5-carbamoyl-4-(quinolin-3-ylamino)pyrimidin-2-yl)amino)pyrrolidine-2-carboxylic acid], for which the IC50 was above 1000 nM.

In the case of `COc1cccc(Nc2ncc(C(N)=O)c(NC3CCC(N)CC3)n2)c1` (stereo in doubt) [Example 247, 4-(trans-4-aminocyclohexylamino)-2-(3-methoxyphenylamino)pyrimidine-5-carboxamide], the IC50 is 10 to 100 nM. With `NC(=O)c1cnc(N[C@H]2CN[C@H](CO)C2)nc1Nc1cccc(-n2nccn2)c1` [Example 225], the IC50 was in the range of 100 to 1000 nM.

As to `N#Cc1ccc(Nc2nc(N[C@@H]3CCOC[C@@H]3N)ncc2C(N)=O)cc1` [Example 54, 2-(((3R,4R)-3-aminotetrahydro-2H-pyran-4-yl)amino)-4-((4-cyanophenyl)amino)pyrimidine-5-carboxamide], the IC50 was in the range of 100 to 1000 nM. With `Cn1ncc2c(Nc3nc(N[C@@H]4CCC[C@H](F)[C@@H]4N)ncc3C(N)=O)cccc21` [Example 240, 2-((1R,2R,3S)-2-amino-3-fluorocyclohexylamino)-4-(1-methyl-1H-indazol-4-ylamino)pyrimidine-5-carboxamide], the IC50 was in the range of 10 to 100 nM. For the compound `CC(C)[C@@H](Nc1ncc(C(N)=O)c(Nc2cc(F)cc(F)c2)n1)C1(N)CC1` [Example 160, (R)-2-(1-(1-aminocyclopropyl)-2-methylpropylamino)-4-(3,5-difluorophenylamino)pyrimidine-5-carboxamide], the IC50 fell in the range of 10 to 100 nM.

With `CC[C@@H](Nc1ncc(C(N)=O)c(Nc2ccc3cccnc3c2)n1)C(N)=O` [Example 57, (R)-2-((1-amino-1-oxobutan-2-yl)amino)-4-(quinolin-7-ylamino)pyrimidine-5-carboxamide], the IC50 lay within 10 to 100 nM. Regarding `NC(=O)c1cnc(N[C@@H]2CCCC[C@@H]2N)nc1Nc1cncc(F)c1` [Example 45], the IC50 is 10 to 100 nM.

As a reminder, the IC50 is the concentration that inhibits the measured activity by half.
